Test results published in US20120270915A1, “FATTY ACID AMIDE HYDROLASE INHIHIBITORS FOR TREATING PAIN” (priority 2011, published 2012).

The compounds below were run against T1, FAAH Rat brain (Rattus norvegicus, UniProt P97612) (assay: FAAH inhibitory activity, rat brain membranes, [14C]-AEA hydrolysis). Settings: Table 3; quantity, enzyme source and unit inferred; read-out: FAAH.
T1 construct: from tissue; host or cells: rat brain membranes
T1 sequence (P97612 1-579): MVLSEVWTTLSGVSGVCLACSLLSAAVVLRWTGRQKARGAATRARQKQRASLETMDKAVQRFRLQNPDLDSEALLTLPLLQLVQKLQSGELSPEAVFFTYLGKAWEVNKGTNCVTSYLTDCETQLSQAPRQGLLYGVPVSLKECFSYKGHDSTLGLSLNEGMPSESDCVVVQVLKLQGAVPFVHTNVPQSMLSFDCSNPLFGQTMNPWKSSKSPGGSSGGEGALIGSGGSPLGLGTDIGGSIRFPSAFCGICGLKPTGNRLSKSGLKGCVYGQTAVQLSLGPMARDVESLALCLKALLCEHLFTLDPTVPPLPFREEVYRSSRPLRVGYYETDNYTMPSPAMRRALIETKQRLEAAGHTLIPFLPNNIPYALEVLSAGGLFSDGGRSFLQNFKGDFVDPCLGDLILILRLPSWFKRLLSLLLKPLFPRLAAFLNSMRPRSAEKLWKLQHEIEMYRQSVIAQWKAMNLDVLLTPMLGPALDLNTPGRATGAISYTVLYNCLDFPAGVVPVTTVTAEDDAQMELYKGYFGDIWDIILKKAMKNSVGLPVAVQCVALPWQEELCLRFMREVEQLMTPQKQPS
Assay type: biochemical
Method: The compounds of Examples 12, and 19 are tested for FAAH inhibitory activity as follows:
Method 1: Membranes obtained from rat brain are incubated with 2 mM [^14C]-AEA, 30 min at 37° C. at pH values ranging from 9.00 to 10.00 in presence and absence of tested compounds in a final volume of […]. Incubation is stopped by extraction with CHCl3/MeOH (1:1) and the aqueous phases containing [^14C]-Ethanolamine produced by [^14C]-AEA hydrolysis are measured.

| Compound | IC50 |
| --- | --- |
| COc1ccc(CCC(=O)O)c(C(=O)N2CCC[C@H]2c2nc(C(=O)NCCCCC3CCCCC3)co2)c1 [Example 19] | 180 nM |
| CCS(=O)(=O)NC(=O)CCc1ccc(OC)cc1C(=O)N1CCC[C@H]1c1nc(C(=O)NCCCCC2CCCCC2)co1 [Example 19a, 2-{(S)-1-[2-(3-Ethanesulfonylamino-3-oxo-propyl)-5-methoxy-benzoyl]-pyrrolidin-2-yl}-oxazole-4-carboxylic acid (4-cyclohexyl-butyl)-amide] | 20 nM |
| COc1ccc(CCC(=O)NS(C)(=O)=O)c(C(=O)N2CCC[C@H]2c2nc(C(=O)NCCCCC3CCCCC3)co2)c1 [Example 19b, 2-{(S)-1-[2-(3-Methanesulfonylamino-3-oxo-propyl)-5-methoxy-benzoyl]-pyrrolidin-2-yl}-oxazole-4-carboxylic acid (4-cyclohexyl-butyl)-amide] | 30 nM |
